This passage reports AC50, IC50 and EC50 results from ChEMBL document CHEMBL1201862, “PubChem BioAssay data set” (2004).

Active and inactive are the calls of the source.

The target of one assay is T1, Caspase-6 (Homo sapiens, UniProt P55212).
T1 sequence (P55212 whole entry): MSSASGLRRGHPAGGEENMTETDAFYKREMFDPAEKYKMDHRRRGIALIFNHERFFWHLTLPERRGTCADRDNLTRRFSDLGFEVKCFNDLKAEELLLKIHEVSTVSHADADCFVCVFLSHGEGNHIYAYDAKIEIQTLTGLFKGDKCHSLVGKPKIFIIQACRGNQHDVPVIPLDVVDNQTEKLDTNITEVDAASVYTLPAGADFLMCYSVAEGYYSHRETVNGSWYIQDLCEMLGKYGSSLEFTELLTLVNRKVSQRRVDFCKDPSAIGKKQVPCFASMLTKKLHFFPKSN
Briefly: inhibition of CASP6 peptide cleavage – biochemical, VEID-R110 fluorescence, cherry-pick, dose response (AID 720632).

Assay [1] deals with Disintegrin and metalloproteinase domain-containing protein 17 (Homo sapiens, UniProt P78536). Briefly: inhibition of ADAM17 substrate cleavage – biochemical, quenched FRET substrate, counter-screen for ADAM10 exosite inhibitor project, dose response (AID 743253). Background: Counterscreens check selectivity or assay interference.
Assay [2] in a line: potency of ADAM10 substrate cleavage blockers – biochemical, QFRET, dose response (AID 743254).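 Note: ADAM10 enzyme with the DM2 quenched FRET peptide as substrate; EDANS fluorescence gain as the protease cuts the substrate; inhibitor potency against ADAM10 proteolytic activity.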
In a further assay the target is Kallikrein-7 (Homo sapiens, UniProt P49862). Briefly: Fluorescence Intensity-based biochemical primary high throughput dose response assay to identify activators of kallikrein-7 (K7) zymogen.
Assay [3] has as its target T2, COUP transcription factor 2 (Homo sapiens, UniProt P24468).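 Note: HEK293 cells transiently cotransfected with COUP-TFII expression vector and reporter; luciferase reporter luminescence driven by COUP-TFII from the pX2-168 reporter plasmid.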
T2 sequence (P24468 whole entry): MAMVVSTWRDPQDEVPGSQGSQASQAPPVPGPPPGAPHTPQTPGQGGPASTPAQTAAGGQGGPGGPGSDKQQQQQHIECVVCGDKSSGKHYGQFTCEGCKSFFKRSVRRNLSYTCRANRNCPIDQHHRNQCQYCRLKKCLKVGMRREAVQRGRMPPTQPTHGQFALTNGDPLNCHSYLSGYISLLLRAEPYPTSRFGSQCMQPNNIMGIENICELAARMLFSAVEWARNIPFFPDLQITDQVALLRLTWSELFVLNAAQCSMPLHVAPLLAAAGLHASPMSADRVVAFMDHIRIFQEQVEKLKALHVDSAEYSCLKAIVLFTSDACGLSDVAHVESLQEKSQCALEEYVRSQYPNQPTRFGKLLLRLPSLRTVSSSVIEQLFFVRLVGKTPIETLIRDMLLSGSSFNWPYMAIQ
Briefly: Luminescence-based cell-based high throughput dose response assay to identify inhibitors of COUP-TFII (NR2F2). It is filed as functional.

A short description of assay [4]: cells. The class given is functional, cell-based. The note with it: HEK-CNG.
A further assay has as its target T3, Galanin receptor type 3 (Homo sapiens, UniProt O60755).
T3 sequence (O60755 whole entry): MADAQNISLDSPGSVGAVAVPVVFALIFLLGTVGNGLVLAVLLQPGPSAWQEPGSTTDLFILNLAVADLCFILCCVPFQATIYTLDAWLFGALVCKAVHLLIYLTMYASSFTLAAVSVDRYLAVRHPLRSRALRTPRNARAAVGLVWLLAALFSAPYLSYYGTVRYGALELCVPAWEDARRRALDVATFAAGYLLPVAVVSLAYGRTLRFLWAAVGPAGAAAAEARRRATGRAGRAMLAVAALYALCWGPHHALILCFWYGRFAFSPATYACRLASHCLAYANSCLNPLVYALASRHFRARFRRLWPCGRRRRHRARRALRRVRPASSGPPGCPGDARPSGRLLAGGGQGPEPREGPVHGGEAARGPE
Briefly: Fluorescence-based cell-based primary high throughput dose response assay to identify antagonists of the Galanin Receptor 3 (GalR3). It is filed as functional.

Assay [5] can be described thus: P. falciparum Dd2 growth inhibitors, dose response, SYBR Green, cherry-picked samples (AID 1159567). The class given is functional, cell-based.
A short description of assay [6]: Trypanosoma cruzi growth suppression in host cells – NIH3T3 host cells, beta-gal luminescence, confirmation (AID 2044).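 Note: intracellular parasites grown in NIH/3T3 mouse fibroblasts as host cells; luminescent beta-galactosidase reporter signal from transgenic T. cruzi replicating inside host cells; inhibitors lower the luminescence signal.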 It is filed as functional, cell-based.
A short description of assay [7]: NIH3T3 cell viability loss – ATP luminescence, mouse fibroblasts, counter-screen, dose response (AID 2010).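 Note: cells exposed to compound for about 90 hours before reading.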 It is filed as functional, cell-based.
Assay [8] is described as follows: HEK-293T cell viability reduction – luminescence, B-cell screen hits, cytotoxicity control for BCR NF-kB inhibitor project, dose response (AID 489021).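 Note: HEK-293T cells carrying an NF-kB luciferase reporter; cells exposed to compound for about 14 hours before viability readout.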 The class given is functional, cell-based.
Assay [9] can be described thus: general cell-killing toxicity readout – plate reader, dry powder samples, cytotoxicity control for PAX8 inhibitor project, dose response (AID 743021). The class given is functional, cell-based.
The target in the next assay is Paired box protein Pax-8 (Homo sapiens, UniProt Q06710). Briefly: PAX8 transcriptional activity inhibition in RMG-I – RMG-I cells, luciferase, cherry-pick, dose response (AID 687027).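 Note: luciferase reporter driven by Pax8 target thyroperoxidase promoter measured by SteadyGlo luminescence.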 The class given is functional, cell-based.
The target of assay [10] is T4, Trace amine-associated receptor 1 (Homo sapiens, UniProt Q96RJ0).
T4 sequence (Q96RJ0 whole entry): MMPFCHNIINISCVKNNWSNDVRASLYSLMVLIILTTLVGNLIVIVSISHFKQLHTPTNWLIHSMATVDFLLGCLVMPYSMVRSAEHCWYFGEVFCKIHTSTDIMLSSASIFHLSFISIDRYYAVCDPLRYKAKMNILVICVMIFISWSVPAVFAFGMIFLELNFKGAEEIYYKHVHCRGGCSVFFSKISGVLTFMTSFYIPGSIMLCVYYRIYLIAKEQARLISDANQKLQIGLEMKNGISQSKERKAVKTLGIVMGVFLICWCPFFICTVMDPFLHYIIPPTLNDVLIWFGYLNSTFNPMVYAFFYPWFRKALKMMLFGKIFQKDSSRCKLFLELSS
Briefly: Counterscreen for agonists of the human trace amine associated receptor 1 (hTAAR1): Fluorescence-based cell-based high throughput dose response assay to identify hTAAR1 agonist that also desensitize TAAR1 receptor response. The class given is functional.

Assay [11] can be described thus: cells. The class given is functional, cell-based.
The nature of assay [12]: cells. It is filed as functional, cell-based. The source holds these as a separate data set.
For assay [13], the target named is T4, Trace amine-associated receptor 1. Briefly: Fluorescence-based cell-based high throughput dose response assay to identify agonists of the human trace amine associated receptor 1 (TAAR1). It is filed as functional.
Assay [14] can be described thus: viability loss of HPDE-C7K cells – cell-based, fluorescence, HTS, primary screen (AID 431). The class given is functional. The note with it: Homo sapiens.
Assay [15] in a line: HPDE-C7 pancreatic duct cell viability loss – fluorescence, HTS (AID 430). It is filed as functional, cell-based. The note with it: Homo sapiens.
Assay [16] is described as follows: alpha-synuclein stem-loop luciferase translation blockers – H4 neuroglioma cells, luminescence, confirmation (AID 1988). It is filed as functional, cell-based.
Assay [17] can be described thus: luciferase reporter signal suppression in cells – H4 neuroglioma cells, luminescence, dose response (AID 1990). The class given is functional, cell-based. (In general: Reporter assays use an easily measured gene product as a stand-in for the process of interest.)
Assay [18] can be described thus: Luminescence Cell-Based Dose Response HTS to Identify Inhibitors of 5'UTR Stem-Loop Driven Prion Protein mRNA Translation in H4 Neuroglioblastoma Cells. [Related pubchem assays: 1827 (Project Summary), 1813 (Primary HTS)]. It is filed as functional.
Assay [19] has as its target T5, Mannose-6-phosphate isomerase (Homo sapiens, UniProt P34949).
T5 sequence (P34949 whole entry): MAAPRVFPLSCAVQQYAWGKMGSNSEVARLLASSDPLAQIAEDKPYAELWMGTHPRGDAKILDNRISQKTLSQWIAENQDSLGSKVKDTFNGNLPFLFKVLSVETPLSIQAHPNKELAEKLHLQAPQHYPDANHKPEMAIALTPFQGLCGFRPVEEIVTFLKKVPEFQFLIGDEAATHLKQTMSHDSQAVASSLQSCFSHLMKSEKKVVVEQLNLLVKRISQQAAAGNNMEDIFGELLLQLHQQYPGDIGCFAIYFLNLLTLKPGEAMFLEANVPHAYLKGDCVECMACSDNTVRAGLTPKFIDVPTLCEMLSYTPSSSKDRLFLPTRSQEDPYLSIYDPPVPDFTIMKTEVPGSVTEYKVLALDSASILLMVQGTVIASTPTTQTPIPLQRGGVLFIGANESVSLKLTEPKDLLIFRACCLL
Briefly: MPI inhibition at elevated mannose 6-phosphate – biochemical, fluorescence intensity, high mannose 6-phosphate, primary screen (AID 1220).

Assay [20] concerns the target Heat shock protein HSP 90-alpha (Homo sapiens, UniProt P07900). The assay can be described thus: Luminescence-based dose response biochemical high throughput screening assay for inhibitors of the Heat Shock Protein 90 (HSP90). [Related pubchem assays: 1831 (Summary AID.), 1846 (Confirmation screen.), 1789 (Primary screen.)].
A short description of assay [21]: cells. The class given is functional, cell-based. The source holds these as a separate data set.
Assay [22] can be described thus: viability loss in HEK293 cells – cell-based, plate reader, cherry-picked samples, cytotoxicity control, dose response (AID 743446). The class given is functional.
Assay [23] can be described thus: A549 cell cytotoxicity, dose response, cytotoxicity control, plate reader, cherry-pick, antagonist series (AID 743412). The class given is functional, cell-based.
Assay [24] is described as follows: blockers of bursicon-stimulated LGR2 cAMP reporter – cell-based, HEK293, CRE-luciferase reporter, cherry pick, set 2, dose response (AID 743343).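 Note: transfected cells were stimulated with diluted bursicon conditioned medium after compound addition.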 The class given is functional.
Assay [25] is described as follows: toxicity toward HepG2 liver cells – cell-based, plate reader, cherry-pick, antagonist series, cytotoxicity control, dose response (AID 743416). The class given is functional.
Assay [26] can be described thus: blockade of melanocortin 4 receptor signaling – cell-based, plate reader, cherry pick, counter-screen for LGR2 antagonist project, dose response (AID 743444).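 Note: transfected HEK 293 cells stimulated with alpha-MSH peptide; potency of inhibitors of the alpha-MSH evoked signal.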 It is filed as functional.
Assay [27] can be described thus: cells. The class given is functional, cell-based. The source holds these as a separate data set.

Kallikrein-7, sequence (P49862 whole entry): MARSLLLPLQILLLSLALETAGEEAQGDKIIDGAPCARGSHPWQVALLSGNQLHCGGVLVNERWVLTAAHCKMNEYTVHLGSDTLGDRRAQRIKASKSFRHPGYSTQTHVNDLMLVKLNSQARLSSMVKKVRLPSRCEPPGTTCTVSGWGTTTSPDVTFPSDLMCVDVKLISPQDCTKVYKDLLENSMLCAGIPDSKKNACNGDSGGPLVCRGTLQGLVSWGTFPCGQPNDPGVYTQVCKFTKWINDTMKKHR
Disintegrin and metalloproteinase domain-containing protein 17, sequence (P78536 whole entry, the tested form may be a part): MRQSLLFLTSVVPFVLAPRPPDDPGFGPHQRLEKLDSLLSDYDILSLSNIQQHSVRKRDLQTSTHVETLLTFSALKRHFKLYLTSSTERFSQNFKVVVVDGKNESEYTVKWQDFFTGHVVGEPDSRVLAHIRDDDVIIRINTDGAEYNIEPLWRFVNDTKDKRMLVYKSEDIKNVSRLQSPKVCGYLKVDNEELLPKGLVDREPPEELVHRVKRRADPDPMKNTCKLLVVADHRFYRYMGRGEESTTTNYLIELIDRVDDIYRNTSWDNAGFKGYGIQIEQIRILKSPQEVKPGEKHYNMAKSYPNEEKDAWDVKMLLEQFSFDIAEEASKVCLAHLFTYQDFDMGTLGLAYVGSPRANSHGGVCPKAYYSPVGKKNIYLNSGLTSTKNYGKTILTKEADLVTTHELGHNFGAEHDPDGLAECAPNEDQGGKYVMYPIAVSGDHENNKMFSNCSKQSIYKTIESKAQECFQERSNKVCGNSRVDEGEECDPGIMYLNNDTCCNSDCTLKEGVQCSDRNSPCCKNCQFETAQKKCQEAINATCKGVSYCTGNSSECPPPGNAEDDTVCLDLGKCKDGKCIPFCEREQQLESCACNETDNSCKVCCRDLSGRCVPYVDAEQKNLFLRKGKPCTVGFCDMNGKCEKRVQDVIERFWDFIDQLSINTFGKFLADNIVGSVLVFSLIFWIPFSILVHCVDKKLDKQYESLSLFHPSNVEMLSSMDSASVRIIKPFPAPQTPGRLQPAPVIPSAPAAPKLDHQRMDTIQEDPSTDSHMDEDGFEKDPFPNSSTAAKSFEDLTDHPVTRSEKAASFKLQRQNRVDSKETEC
Paired box protein Pax-8, sequence (Q06710 whole entry): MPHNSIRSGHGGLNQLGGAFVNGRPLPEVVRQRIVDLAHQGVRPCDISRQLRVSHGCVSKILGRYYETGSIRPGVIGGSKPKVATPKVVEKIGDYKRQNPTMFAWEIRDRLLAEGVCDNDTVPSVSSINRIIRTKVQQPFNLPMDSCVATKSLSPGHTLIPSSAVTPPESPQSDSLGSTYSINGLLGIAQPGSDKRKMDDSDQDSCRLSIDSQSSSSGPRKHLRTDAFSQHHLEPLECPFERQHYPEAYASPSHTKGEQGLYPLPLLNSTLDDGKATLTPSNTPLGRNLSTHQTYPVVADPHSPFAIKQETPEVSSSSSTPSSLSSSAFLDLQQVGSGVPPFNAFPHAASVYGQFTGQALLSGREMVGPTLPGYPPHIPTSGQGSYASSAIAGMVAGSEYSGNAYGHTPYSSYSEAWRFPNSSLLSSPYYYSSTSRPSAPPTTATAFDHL

As a reminder, the AC50 is the concentration at which the activity in the assay is half-maximal. Regarding `O=C(O)c1ccc([N+](=O)[O-])c([N+](=O)[O-])c1`, the AC50 on Caspase-6 was 12.3 µM (active).

Broadly, the IC50 is the concentration that inhibits the measured activity by half. As to `CCCCC[C@H](C)N1C[C@@H](COCc2ccccc2)Oc2cc(N3CC[C@H](O)C3)ccc2S1(=O)=O`, the IC50 in assay [1] was > 69.5 µM (inactive); in assay [2], 8.14 µM (active).

In general, EC50 refers to the concentration that produces a half-maximal response. Regarding `N=c1c(C(=O)NC2CCCC2)cc2c(=O)n3ccccc3nc2n1CC1CCCO1` (stereo not given), the EC50 at Kallikrein-7 is 26.8 µM (inactive).

On to `Cc1cccc(Cl)c1NC(=O)N1CCCN(c2nc3ccc(Cl)cc3s2)CC1`, for which the IC50 in assay [3] was 11.3 µM (inactive); at Galanin receptor type 3, 2.06 µM (active). In “cells [4]”, the EC50 was > 29.9 µM (inactive).

As to `COc1ccc2c3c(n(C)c2c1)[C@@H](CO)N(Cc1ccccc1)CC31CCN(S(=O)(=O)c2ccc(C)cc2)CC1`, the AC50 in assay [5] was 6.1 µM (active).

Consider `COc1ccc(/C=N/OCC(=O)NC(c2ccccc2)c2ccccc2)cc1OC`, for which the values for the IC50 (in assay [3]; in [8]; on Galanin receptor type 3) were 5.09 µM (active), > 80 µM (inactive) and 1.23 µM (active), respectively. Further, the figures for the EC50 (in [6]; in “cells [4]”; in [7]) were 0.56 µM (active), > 29.9 µM (inactive) and > 60 µM (not active), respectively.

Take `C[C@@H]1CCCCO[C@H](CN(C)C(=O)NC2CCCCC2)[C@H](C)CN([C@@H](C)CO)C(=O)c2cc(NS(=O)(=O)c3ccc(Cl)cc3)ccc2O1`: the AC50 in assay [9] was 52.5 µM (active); at Paired box protein Pax-8, 10.5 µM (active).

On to `O=C(CCN1CCc2ccccc2CC1)c1ccc2c(c1)OCCO2`, for which the IC50 is 0.828 µM (active) in assay [10] and > 29.9 µM (inactive) in “cells [12]”. In addition, the EC50 in the assay “cells [11]” is > 29.9 µM (inactive); in assay [13], 0.254 µM (active); in [14], 11.3 µM (active); in assay [15] it was 13.1 µM (active).

As for `C=CCNc1nc(NCc2ccccc2)c(C#N)c2c1CN(C)CC2`, the EC50 is 13.1 µM (inactive) at Kallikrein-7, > 120 µM (not active) in [16], > 120 µM (not active) in assay [17] and > 120 µM (not active) in assay [18]. For the same compound, in assay [19], the concentration for half-maximal inhibition (IC50) is > 50 µM (not active).

Regarding `C#CCn1cc(/C=C2\NC(=O)NC2=O)c2ccccc21`, the half-maximal inhibitory concentration (IC50) in [20] is 1.31 µM (active).

Regarding `COc1ccccc1NC(=O)C(=N\O)/C(C)=N/O`, on Caspase-6, the AC50 was 11.2 µM (active).

Take `CCCCCCCCN1C(=O)[C@@H](CC(=O)NCc2ccc(OC)c(OC)c2)C[C@@]2(C(=O)OC)C1=C[C@H](C(C)C)O[C@@H]2C1CC1`: the IC50 in assay [1] was > 69.5 µM (inactive); in assay [2], 10.8 µM (inactive).

`CCN(CC)S(=O)(=O)c1cccc(-c2cn3cccnc3n2)c1`: the EC50 at Kallikrein-7 was > 69.5 µM (inactive).

With `CN(c1cccc(Cl)c1)S(=O)(=O)c1cccc(C(=O)Nc2nc3ccccc3[nH]2)c1`, the concentration giving a half-maximal response (EC50) in “cells [21]” was 27.2 µM (active); in the assay “cells [27]”, > 350 µM (not active). For the same compound, the AC50 was 21.1 µM (active) in [22]; 14 µM (active) in assay [23]; 24.5 µM (active) in assay [24]; 22.1 µM (active) in assay [25]; 19.6 µM (active) in assay [26].

For the compound `O=C(OCc1ccccn1)c1ccc(COc2ccc3ccccc3c2)o1`, in [20], the 50% inhibitory concentration (IC50) was 2.61 µM (active).
